Reference: PubChem BioAssay (NCI)
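Following 48 hours of exposure in 96-well plates, responses at five concentrations were used to interpolate endpoints linearly. The concentration for 50% growth inhibition is given as GI50. Definition used: TGI = concentration required for complete inhibition of growth.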

Legend:
Experiment in all cases: NCI-60 cell line screen, 48 h
OVCAR-8 ovarian = tested on: OVCAR-8 ovarian
UO-31 renal = tested on: UO-31 renal
HS 578T breast = tested on: HS 578T breast
NCI-H226 lung = tested on: NCI-H226 lung
UACC-257 melanoma = tested on: UACC-257 melanoma
RPMI-8226 leukemia = tested on: RPMI-8226 leukemia
SNB-75 CNS = tested on: SNB-75 CNS
SW-620 colon = tested on: SW-620 colon
BT-549 breast = tested on: BT-549 breast
MDA-N = tested on: MDA-N

Compound | TGI (OVCAR-8 ovarian) | TGI (UO-31 renal) | TGI (HS 578T breast) | TGI (NCI-H226 lung) | TGI (UACC-257 melanoma) | TGI (RPMI-8226 leukemia) | TGI (SNB-75 CNS) | TGI (SW-620 colon) | TGI (BT-549 breast) | TGI (MDA-N) | GI50 (OVCAR-8 ovarian) | GI50 (UO-31 renal) | GI50 (HS 578T breast) | GI50 (NCI-H226 lung) | GI50 (SNB-75 CNS) | GI50 (UACC-257 melanoma) | GI50 (SW-620 colon) | GI50 (BT-549 breast) | GI50 (RPMI-8226 leukemia)
CC(O)c1c2c(cc3c1CC1(C3)Cc3cc4c(c(C(C)O)c3C1)CCC4)CCC2 (stereo not given) | > 100 µM | 3.26 µM | 52.8 µM | 34 µM | 31.7 µM | 38.5 µM |  |  |  |  |  |  |  |  |  |  |  |  | 
O=C1CC2CC=C[C@H]3c4cc5c(cc4C(=O)N1C23)OCO5 (stereo not given in full) | > 50 µM | > 50 µM |  | > 50 µM | > 50 µM | > 50 µM | > 50 µM | > 50 µM |  |  |  |  |  |  |  |  |  |  | 
O=C1C=C(N2CCCC2)C=C(N2CCCC2)C1 | > 100 µM | > 100 µM |  | > 100 µM | > 100 µM | > 100 µM | > 100 µM | > 100 µM |  |  |  |  |  |  |  |  |  |  | 
O=c1[nH]c2cc(C(F)(F)F)ccc2nc1Cc1ccccc1 | > 100 µM | > 100 µM | > 100 µM | > 100 µM | > 100 µM | > 100 µM | > 100 µM | > 100 µM | > 100 µM |  |  |  |  |  |  |  |  |  | 
Cc1ccc(/C=C2\CN(C)CC3C(c4ccc(C)cc4)=C(C#N)C(=O)NC23)cc1 (stereo not given) | > 50 µM |  | > 50 µM | > 50 µM | > 50 µM | > 50 µM |  | > 50 µM | > 50 µM | > 50 µM |  |  |  |  |  |  |  |  | 
CCOc1ccc(N2C(=O)C3c4[nH]c5ccccc5c4C4CCC(C(C)(C)C)CC4C3C2=O)cc1 (stereo not given) | > 100 µM | > 100 µM |  | > 100 µM | > 100 µM | > 100 µM | > 100 µM | > 100 µM |  |  |  |  |  |  |  |  |  |  | 
O=C(O)CCC(NC(=O)c1ccc(Nc2nc3ccccc3nc2C(=O)O)cc1)C(=O)O (stereo not given) | > 100 µM | > 100 µM | > 100 µM |  | > 100 µM | > 100 µM | > 100 µM |  | > 100 µM | > 100 µM |  |  |  |  |  |  |  |  | 
COc1ccc(/C=C2\CN(C(=O)CCN3CCC(=NO)CC3)C/C(=C\c3ccc(OC)cc3)C2=O)cc1 | 16 µM | 2.94 µM | 18.6 µM | 7.54 µM | 7.57 µM | 3.79 µM | 9.33 µM | 3.14 µM | 6.08 µM |  | 3.22 µM | 1.59 µM | 3.64 µM | 2.51 µM | 2.14 µM | 2.65 µM | 1.39 µM | 2.17 µM | 0.648 µM
COCCOCN(C(=O)C1=CCC2(CC1)OCCO2)c1ccccc1I | > 50 µM | > 50 µM |  | > 50 µM | > 50 µM | > 50 µM | > 50 µM | > 50 µM |  | > 50 µM |  |  |  |  |  |  |  |  | 
COc1cc([C@@H]2c3cc4c(cc3[C@H](OC3OC5COC(C(C)C)OC5C(O)C3O)C3COC(=O)[C@@H]32)OCO4)cc(OC)c1O (stereo not given in full) | 25.9 µM | 22.3 µM | 42.3 µM | 24 µM | 22.3 µM | 42.5 µM |  | 22.5 µM | 15.9 µM | 6.48 µM |  |  |  |  |  |  |  |  | 
O=C(c1ccccc1)c1nn(-c2ccc(Cl)cc2)c2nc3nc(-c4ccccc4)cc(=O)n3nc12 | > 100 µM | > 100 µM | > 100 µM | > 100 µM | > 100 µM | > 100 µM | 97.9 µM | > 100 µM | 62.8 µM |  | 48.3 µM | 25.7 µM | 28.9 µM | > 100 µM | 28.8 µM | 70.7 µM | 49.5 µM | 26.2 µM | 28.8 µM
CCN(CC)CCNC(=O)c1ccc([N+](=O)[O-])cc1OC | > 100 µM | > 100 µM |  | > 100 µM | > 100 µM |  | > 100 µM | > 100 µM |  |  |  |  |  |  |  |  |  |  | 
O=C(O)C(CS)NCc1c2ccccc2[n+]([O-])c2ccccc12 (stereo not given) | > 100 µM | 66.3 µM |  | > 100 µM | > 100 µM | 92.4 µM | > 100 µM | > 100 µM |  |  |  |  |  |  |  |  |  |  | 
O=C1Nc2cccc3ncn(c23)C2=C1CCCC2 | > 100 µM | > 100 µM |  |  | > 100 µM | > 100 µM |  | > 100 µM |  |  |  |  |  |  |  |  |  |  | 
CCOC(=O)C1(Cc2ccccc2)Cc2cc3c(cc2C1)CCC3 | > 100 µM | > 100 µM | > 100 µM | 76.8 µM | > 100 µM | 51.7 µM |  | > 100 µM | 95.3 µM | > 100 µM |  |  |  |  |  |  |  |  | 
S=C(NNC1=NCCCN1)Nc1ccccc1 | > 100 µM | > 100 µM | > 100 µM | > 100 µM | > 100 µM | 79 µM | > 100 µM | > 100 µM | > 100 µM |  |  |  |  |  |  |  |  |  | 
Cc1ccc(-c2sc(-c3ccc(C)cc3)c3c2C2CCC3C2)cc1 | > 50 µM | > 50 µM | > 50 µM | > 50 µM | > 50 µM | > 50 µM |  | > 50 µM | > 50 µM | > 50 µM |  |  |  |  |  |  |  |  | 
